Laboratory results: patent US20230372364A1, “METHOD OF TREATING GABA MEDIATED DISORDERS” (Eliem Therapeutics (UK) Ltd, priority 2020, published 2023)
Values joined by “and” are separate entries in the source; they are usually repeats but may differ in a detail not shown here. Equal values may be shown once. “Also recorded” adds a separate entry of the source. Marks after values point to notes of the source that are not given here.

What was measured:
[1] = system: rats; assay: Sleep states by electroencephalogram (EEG) in rats; assay type: in vivo, rat
Protocol: The effect of CV-10155 on various sleep states was analyzed in rats. Rats were given various doses of CV-10155, and sleep states were analyzed by electroencephalogram (EEG).

[2] = Human equivalent dose and allometric scaling of anticipated human exposure; conditions: 60 kg participant
Protocol: (§1) Justification for Dose—Based on the nonclinical toxicology data, there is not an unreasonable risk of adverse effects. Using the FDA guidance “Estimating the Maximum Safe Starting Dose in Initial Clinical Trials for Therapeutics in Adult Healthy Volunteers” (July, 2005), the calculated human equivalent dose would be 1/2 mg/kg/day or 3/24 mg/kg/day, respectively, based on the 28-day rat no-observed-adverse-effect-level dose of 7.5 mg/kg/day or the 28-day dog no-observed-adverse-effect-level dose of 6 mg/kg/day, respectively. For both species the no-observed-adverse-effect-level dose was the highest dose tested. For a 60 kg participant, this would result in a maximum safe starting dose of (human equivalent dose/10) of 7.2 mg/day or 19/6 mg/day. The starting doses in this Phase 1 study are 5 mg, equivalent to […] for a 60 kg participant. […] These anticipated Cmax and AUC values are ˜80- and 50-fold lower, respectively, than that observed at the no-observed-adverse-effect-level dose in dogs.

[3] = system: rodent models; assay: Tolerability in rodent models; assay type: in vivo; conditions: at efficacious doses
Excerpt: The compound of Formula (I) is also believed to show antiepileptic activity in maximal electroshock and pentylenetetrazol seizure models, antidepressant properties in the forced swim test, and anxiolytic properties in the elevated plus maze test.

[4] = system: cardiovascular or respiratory function; assay: In vivo safety pharmacology studies
Protocol: (§2) The no-observed-adverse-effect-level doses were 7.5/mg/kg/day and 6 mg/kg/day in rats and dogs, respectively.

[5] = system: human subjects; assay: 60 mg once daily for seven days, adverse events in humans (MAD); assay type: in vivo; conditions: for AE Sleepiness (Nervous system disorders): listed three times in the table; for AE Headache (Nervous system disorders): listed twice in the table
Protocol: The effects of CV-10155 in relation to administration at different times of the day and states of feeding were analyzed in humans. Subjects were given 60 mg CV-10155 orally once per day for seven consecutive days, and plasma concentrations were measured at various time points. Doses were administered either in the morning to fasted subjects or in the evening to fed subjects.
Adverse events observed following administration of a single dose of CV-10155 in the evening in a fed state are summarized on Table 6.
A comparison of adverse events observed following administration to fasted subjects in the morning and to fed subjects in the evening is provided in Table 7.
The tolerability of the neurosteroids CV-10155, Sage-217, and Praxis-114 in human subjects were compared. The results from subjects that received 45 mg Praxis-114 in the evening, 60 mg Praxis-114 in the evening, 80 mg Praxis-114 in the evening, or 60 mg CV-10155 in the evening are provided in Table 8, and the results form subjects that received 30 mg Sage-217 or 20 mg Sage-217 are provided in Table 9.

[6] = Single ascending oral dose pharmacokinetics in humans; assay type: in vivo; conditions: human
Protocol: The pharmacokinetic properties of CV-10155 in humans were analyzed. Subjects were given a single oral dose of CV-10155, and plasma concentrations were measured at various time points. Various dosages were given to fasting subjects, and 30 mg dose was given to a subjects in a fed state.
FIG. 15 is a graph of the average plasma concentration of CV-10155 following oral administration to humans. Purple circles represent 5 mg, fasted; green diamonds represent 15 mg, fasted; red squares represent 30 mg fasted; blue triangles represent 30 mg, fed; purple crosses represent 60 mg, fasted; teal 5-pointed stars represent 90 mg, fasted; olive 6-pointed stars represent 135 mg, fasted; and brown 10-pointed stars represent 200 mg fasted.
FIG. 16 is a graph of the average plasma concentration of CV-10155 following oral administration of a 30 mg dose to humans. Blue triangles represent fasted; and red circles represent fed.
The pharmacokinetic properties of CV-10155 and Sage-217 in humans were compared. The day 7 from subjects given either 60 mg CV-10155 in the morning in a fasted state or 30 mg Sage-217 were analyzed. Results from multiple ascending dose studies are shown in Table 10, and results from single ascending dose studies are shown in Table 11.

[7] = target: kappa opioid receptor (Homo sapiens, UniProt P41145); assay: Activity at the kappa opioid receptor; conditions: previously shown
Excerpt: The compound of Formula (I) is believed to have binding affinity at the GABA-gated Cl-channel, the kappa opioid receptor, the 5-HT2A receptor, and the androgen receptor. The compound of Formula (I) has previously shown activity at all 18 GABAA receptor channels and the kappa opioid receptor. The compound of Formula (I) had previously shown no activity at the 5-HT2A receptor. Activity at the androgen receptor is has not yet been well studied.

[8] = system: dogs; assay: Repeat-dose toxicity up to four weeks, dogs; assay type: in vivo, dog; conditions: 28-day repeat dose
Protocol: as §2, §1

[9] = 60 mg once daily for seven days, pharmacokinetics in humans (MAD); conditions: human
[10] = Further pharmacokinetic analysis of Phase 1 human dosing exposure studies; assay type: in vivo
[11] = system: rats; assay: Repeat-dose toxicity up to four weeks, rats; assay type: in vivo, rat
Protocol: as §2, §1

[12] = 60 mg, evening, fed state, N = 9
[13] = 60 mg, morning, fasted state, N = 9
[14] = HV, 60 mg evening dosing, n = 12
[15] = human, 60 mg, evening, fed state, one line per subject and event

kappa opioid receptor, sequence (P41145 whole entry): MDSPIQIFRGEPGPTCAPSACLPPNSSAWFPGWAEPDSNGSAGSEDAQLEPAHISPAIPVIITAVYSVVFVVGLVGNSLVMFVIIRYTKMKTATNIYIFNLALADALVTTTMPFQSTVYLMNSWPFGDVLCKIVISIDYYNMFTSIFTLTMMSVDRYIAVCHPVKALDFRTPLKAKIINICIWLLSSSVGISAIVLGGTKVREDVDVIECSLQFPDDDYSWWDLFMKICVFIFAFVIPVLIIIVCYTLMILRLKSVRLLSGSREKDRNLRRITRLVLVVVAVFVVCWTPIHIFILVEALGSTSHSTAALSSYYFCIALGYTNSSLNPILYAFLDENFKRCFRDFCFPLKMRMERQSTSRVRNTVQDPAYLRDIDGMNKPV

With C[C@@]1(O)CC[C@@]2(C)[C@@H](CC[C@@H]3[C@@H]2CC[C@]2(C)[C@@H](C(=O)Cn4cc(C#N)cn4)CC[C@@H]32)C1 [CV-10155, 1-[2-[(3R,5S,8R,9S,10S,13S,14S,17S)-3-hydroxy-3,10,13-trimethyl-1,2,4,5,6,7,8,9,11,12,14,15,16,17-tetradecahydrocyclopenta[a]phenanthren-17-yl]-2-oxoethyl]pyrazole-4-carbonitrile] the “dose producing an increase in non-REM sleep” value ([1]; doses 1, 3, 6, 10 mg/kg) was at least 3 mg/kg, the target engagement ([1]; within well-tolerated and efficacious dose ranges) was “dose-dependent target engagement” and the “maximum safe starting dose (human equivalent dose/10)” value ([2]; from dog NOAEL) was 19/6. The “maximum safe starting dose (human equivalent dose/10)” value ([2]; from rat NOAEL) was 7.2 mg/day, the “tolerability in rodent models” value [3] was “well tolerated” and the “effect on cardiovascular or respiratory function” value [4] was “does not affect”. The “AE Back pain (Musculoskeletal and connective tissue disorders)” value [5, 12] was 1 #, the “AE Bloating (Gastrointestinal disorders)” value [5, 12] was 1 # and the “AE Dizziness (Nervous system disorders)” value [5, 12] was 1 #. The “AE Sleepiness (Nervous system disorders)” value [5, 12] was 1 #, the “AE Headache (Nervous system disorders)” value [5, 12] was 2 # and the “AE Dizziness (Nervous system disorders)” value [5, 13] was 1 #. For the same compound, the “AE Feeling sleepy (Nervous system disorders)” value [5, 13] was 1 #, the “AE Feeling tired (General disorders and administration site conditions)” value [5, 13] was 2 # and the “AE Tiredness (General disorders and administration site conditions)” value [5, 13] was 3 #. The “AE Sleepiness (Nervous system disorders)” value [5, 13] was 9 #, the “AE Headache (Nervous system disorders)” value [5, 13] was 2 # and the “Dizziness, AEs % of subjects” value [5, 14] was 16.7%. The “Headache, AEs % of subjects” value [5, 14] was 8.3%, the “Somnolence, AEs % of subjects” value [5, 14] was 8.3% and the “AE (per subject)” value [5, 15] was “Dizziness; also recorded: Headache; also recorded: Somnolence; also recorded: Back pain; also recorded: Abdominal”. For the same compound, the AE duration [5, 15] was 20.50 h and 13.00 h and 14.50 h and 10.62 h and 39.25 h and 13.25 h and 06.50 h, the “AE onset from dose” value [5, 15] was “pre-dose” and the AE severity [5, 15] was “Mild (6×) and Moderate”. For the same compound, the “adverse effects that interfere with sleeping” value ([5]; human, oral administration in the evening to fed subjects) was “does not produce adverse effects that interfere with sleeping”, the “effect of food consumption on absorption” value ([6]; 30 mg oral, fed vs fasted) was “no clinically meaningful effect” and the Tmax ([6]; 135 mg SAD MTD) was 2.83 h. For the same compound, the Tmax ([6]; single oral dose, 5-200 mg) was 2 to 4 h, the half-life ([6]; single oral dose, 5-200 mg) was 24 to 26 h and the “inter-subject variability (CV) of AUC and Cmax” value ([6]; single oral dose, 5-200 mg) was at most 30%. For the same compound, the “dose proportionality of AUC and Cmax” value ([6]; single oral dose, 5-200 mg dose range) was “dose-proportional increase”, the “activity at the kappa opioid receptor” value [7] was “activity” and the no-observed-adverse-effect-level dose [8] was 6 mg/kg/day. For the same compound, the “ratio of Cmax/trough on day 7” value ([9]; 60 mg daily in the evening in a fed state) was 3.47, the “ratio of Cmax/trough on day 7” value ([9]; 60 mg daily in the morning in a fasted state) was 6.09 and the “difference in absorption, morning fasted vs evening fed” value ([9]; 60 mg oral once per day for seven days) was “no significant difference”. For the same compound, the “Ratio (Cmax/Cmin)” value ([9]; 60 mg, day 7 MAD, morning dosing) was 6.07, the AUC0-inf ([9]; plasma, oral, 60 mg) was 2900 ng·h/mL and the concentration at 7 day ([9]; plasma, oral, 60 mg) was 41.5 ng/mL. For the same compound, the elimination in urine [10] was < 1 % of the dose, the “accumulation ratio based on AUC” value ([10]; once daily administration) was “approximately 2” and the “daily dose by which steady state was achieved” value ([10]; once daily administration, visual inspection of mean concentrations) was “eighth”. For the same compound, the Tmax ([10]; plasma, Phase 1, after oral administration) was 3 to 4 h, the half-life ([10]; plasma, oral, Phase 1, both after single and repeat administration, read-out: terminal half-life (converted)) was about 40 h and the “primary effects observed in repeat-dose toxicity” value ([11]; mid and high dose levels, species not specified (rats and dogs program)) was “ataxia and prostration”. It also gave a no-observed-adverse-effect-level dose ([11]; rats, 28-day repeat dose) of 7.5 mg/kg/day.
